Reference: patent US11396524B2, “Hydrate crystal of 3′,3′-cGAMP” (Yamasa Corporation, priority 2018, dated 2022)

Tests used:
Assay type in all cases: physicochemical
[1] = Hygroscopicity test: standing 3 days in desiccator at 30° C. and 93% humidity, moisture content by the Karl-Fischer method; details: for Moisture content after standing / Moisture content before standing: Karl-Fischer method; for Moisture content after standing: after standing 3 days at 30° C., humidity 93% (saturated potassium nitrate desiccator); for Moisture content before standing: before standing at 30° C.; for Moisture content before standing / Δ Moisture content: humidity 93%; for Δ Moisture content: after minus before standing 3 days at 30° C.
Experimental: A hydrate crystal of 3′,3′-cGAMP according to the invention may be either a crystal of alkali metal salt or a crystal of free acid. Either is less hygroscopic than existing powder. Thus, each is easy to handle in various purposes and is thus useful as a pharmaceutical raw material or the like. Note that the wording “less hygroscopic” herein refers to the case where after (A) allowed to stand for 1 day under conditions at a temperature of 30° C. and a humidity of 43% and then (B) allowed to stand for 3 days under conditions at a temperature of 30° C. and a humidity of 93%, a substance of interest has a moisture content of 25% or less at the end point (B) and the difference in the moisture content between the end point (A) and the end point (B) is within ±5%.
The crystals obtained in the above Examples 1 and 2 as well as the lyophilized product obtained in the Reference Example were allowed to stand for 3 days in a desiccator filled with a saturated potassium nitrate solution and kept at a temperature of 30° C. and a humidity of 93%. The moisture content was compared between before and after the standing by the Karl-Fischer method.

[2] = Stability test, crystals stored at 60° C.
Experimental: Meanwhile, the crystals were stored at 60° C. and subjected to a stability test.

[3] = Crystal moisture content by the Karl-Fischer method; details: for Moisture content after storage at a humidity of 43% for 1 day: stored at humidity 43% for 1 day
Experimental: In Example 1, the crystals of 3′,3′-cGAMP sodium salt were prepared. Here, the crystal moisture content immediately after drying was measured by the Karl-Fischer method. As a result, the moisture content was 7.9%. […] In addition, the crystals were stored at a humidity of 43% for 1 day so as to stabilize their moisture content. The moisture content was likewise measured.
The crystals of 3′,3′-cGAMP free acid as prepared in Example 2 were stored at a humidity of 43% for 1 day so as to stabilize their moisture content. Then, the crystal moisture content was measured by the Karl-Fischer method.

Substance	Moisture content after standing [1] [%]	Moisture content before standing [1] [%]	Δ Moisture content [1] [%]	Stability under high temperature conditions (decomposition of 3′,3′-cGAMP) [2]	Moisture content after storage at a humidity of 43% for 1 day [3] [%]	Moisture content after standing ([1]; sodium salt) [%]	Δ Moisture content ([1]; sodium salt)	Moisture content immediately after drying ([3]; immediately after drying) [%]	Moisture content before standing ([1]; sodium salt) [%]
3′,3′-cGAMP free acid [Example 2]	23.09	24.71	−1.62	not apparently decomposed	24.7	–	–	–	–
3′,3′-cGAMP sodium salt [Example 1]	–	18.10	–	not apparently decomposed	18.1	21.60	+3.50%	7.9	–
3′,3′-cGAMP sodium salt [Reference Example, reference compound]	–	–	–	–	–	36.01	+23.07%	–	12.94
